According to a melting point compilation (Tetko et al.; mined from patent text by program, amines drawn as free bases though some values may be those of a salt):

Row | melting point | SMILES
1 | 104 to 108 °C | O=C(O)c1ccc(OCCNC(=O)C2Cc3ccccc3N2S(=O)(=O)c2ccc(-c3cccc(C(F)(F)F)c3)cc2)cc1Cl (centres undefined)
2 | 136 to 138 °C | CCOC(=O)c1c(OCc2ccc(-c3ccccc3-c3nnn(C(c4ccccc4)(c4ccccc4)c4ccccc4)n3)cc2)cc(C)nc1C
3 | 168 to 171 °C | CC(=O)OCC1CCn2c(c(C3=C(c4ccccc4Cl)C(=O)OC3=O)c3ccccc32)C1 (centres undefined)
4 | 138 to 140 °C | COc1cc(OC)cc(-c2oc3ncnc(Cl)c3c2-c2ccccc2)c1
5 | 98 to 99 °C | COc1ccc(CSc2ccc([N+](=O)[O-])cc2CBr)cc1
6 | 168 to 169 °C | CC1(c2ccccc2)Cc2cc(OCC(=O)O)c(Cl)c(Cl)c2C1=O (centres undefined)
7 | 186 to 190 °C | CCN(CC)C(=O)c1nc(-c2ccc(Cl)cc2Cl)[nH]c1C(F)(F)F
8 | 184 to 185 °C | CCOC(=O)c1cn(-c2nccs2)c2nc(Cl)cc(C(F)(F)F)c2c1=O
9 | 134 to 136 °C | COc1ccc(C)cc1NC(=O)Nc1ccc(N2CCN(C(=O)Nc3ccc(OCC(O)CO)cc3Cl)CC2)cc1 (centres undefined)
10 | 114 °C | CC1=C(c2ccccc2)C(=O)N(C(C)(C)C(=O)Nc2cccc(Cl)c2)CO1
11 | 106 to 109 °C | O=[N+]([O-])c1cnn(-c2ccc(C(F)(F)F)cc2Cl)c1
12 | 110 to 111 °C | CC(C)(C)c1cc(NC(=O)Nc2cccc(Oc3nc4ccccc4s3)c2)[nH]n1
13 | 163 to 165 °C | CN1CC(c2ccc(S(C)(=O)=O)cc2)=C(c2ccccc2)C1=O
14 | 132 to 134 °C | CC(C)(C)OC(=O)C1CCCNN1C(=O)C(CCC(=O)O)N1C(=O)c2ccccc2C1=O (centres undefined)
15 | 135 °C | COc1cccc(C(=O)Nc2ccc3ccc(OC)nc3n2)c1
16 | 135 to 136 °C | CCCC(Oc1ccccc1COc1ccc2oc(-c3nc(C(C)(C)C)cs3)cc2c1)C(=O)O (centres undefined)
17 | 214 to 215 °C | COc1ccccc1-c1cc(C(=O)O)cc(-n2cnnn2)c1
18 | 168 to 169 °C | COc1cccc(NC(=O)c2ccccc2C(=O)O)c1
19 | 216 °C | Cc1cc(-c2cc(C(F)(F)F)n3ncc(C#N)c3n2)ccc1Cl
20 | 282 to 283 °C | CCOC(=O)c1cn2ccc(NC(=O)c3cc4cc(C(F)(F)F)ccc4n3Cc3cccc(F)c3)cc2n1
21 | 154 to 155 °C | O=c1c2cccc3ncc(c(=O)n1CCCCNS(=O)(=O)CC(F)(F)F)n32
22 | 178 to 179 °C | N#Cc1ccc(-c2ccc(N3CC(CI)CC3=O)cc2)cc1 (centres undefined)
23 | 127 to 129 °C | FC(F)(F)c1cccc(C=Cc2ccccc2)c1
24 | 245 °C | Cc1nc2cc(-c3ccc(C=C4SC(=O)NC4=O)cn3)cc(OCc3ccccc3)c2o1
25 | 138 °C | CC(C)NC(=O)CS(=O)CC(=O)c1ccc(-c2ccccc2)cc1 (centres undefined)

Row | melting point | SMILES
26 | 106 to 108 °C | NCCCNc1cccc2c1C(=O)c1ccccc1C2=O
27 | 135 to 137 °C | O=C(c1ccc(Cl)cc1)c1cc2ccccc2cc1O
28 | 164 to 165 °C | Oc1cc(N=Nc2ccccn2)ccc1-c1ccc(-c2ccc(N=Nc3ccccn3)cc2O)o1
29 | 154 to 157 °C | CNC(=O)N1CC(Oc2ccc(C(F)(F)F)cc2)C1
30 | 225 to 227 °C | Cc1ccc(Nc2nc(-c3ccccc3)c(-c3nc4ccccc4c(=O)n3-c3ccc(Cl)cc3)s2)cc1
31 | 149 to 150 °C | CCOC(=O)Cc1ccc(NC(=O)C(CO)NS(=O)(=O)c2ccc(Br)cc2)cc1 (racemic)
32 | 173 to 175 °C | O=C(NOCCO)c1ccc(F)c(F)c1Nc1ccc(I)cc1Cl
33 | 98 to 110 °C | COc1ccc2[nH]c(C(=O)Nc3cc(NC(=O)OCc4ccccc4)c4ccccc4c3CCOC(C)=O)cc2c1
34 | 144 °C | COc1ccccc1-c1nc(=O)c2ccccc2s1
35 | 130 to 133 °C | CCN(C)c1nc2cc(-c3ccccc3)nnc2c2ccccc12
36 | 210 to 212 °C | NC(=O)c1ccc(C(=C2CC3CCC(C2)N3CCc2ccccc2)c2ccccc2)cc1
37 | 211 to 213 °C | Cc1cncnc1Nc1ccc(C(=O)CC2CCN(Cc3ccccc3)CC2)cc1
38 | 260 to 261 °C | O=c1[nH]c2cc(Cl)ccc2c(=O)n1S(=O)(=O)c1c(Cl)cccc1Cl
39 | 185 to 187 °C | CC(C)(C)c1cc(NC(=O)NCCc2ccc([N+](=O)[O-])cc2)cc(C(C)(C)C)c1O
40 | 96 to 97 °C | COC(=O)C(=O)c1ccccc1Oc1cc(Oc2ccccc2C#N)ncn1
41 | 202 to 204 °C | Cn1cc(C2=C(c3cn(CCCOS(C)(=O)=O)c4ccccc34)C(=O)NC2=O)c2ccccc21
42 | 183 to 184 °C | CCCNC(=S)NS(=O)(=O)c1cc2c(cc1OC)OCCC2CNC(=O)c1cc(Cl)ccc1OC (centres undefined)
43 | 98 to 100 °C | O=C(O)CN(CC(=O)O)C(=O)c1cc(OCCCCCCOc2ccc(-c3ccccc3)cc2)ccc1OCc1ccccc1
44 | 123 to 130 °C | CCCCCC(C(=O)O)n1cnc2cc(-c3ccccc3-c3nn[nH]n3)ccc21 (centres undefined)
45 | 124 to 129 °C | CCc1nc2c(C)cc(C)nc2n1Cc1ccc(C(=Cc2nnn[nH]2)c2ccc(C(F)(F)F)cc2)cc1
46 | 77 to 79 °C | O=S(=O)(c1ccccc1)C(F)(F)C(O)c1ccccc1 (centres undefined)
47 | 247 to 249 °C | Cc1nn(C)c(Cl)c1S(=O)(=O)N1CCC2(CC1)CSC1=C(O2)c2ccccc2C(=O)C1=O
48 | 148 °C | COC(=O)C(c1ccccc1)(c1ncc[nH]1)c1ccccc1C (centres undefined)
49 | 163 to 165 °C | O=C(Nc1ccc(Cl)cn1)c1cc(Cl)ccc1NCC1CCN(C(=O)c2cccs2)CC1

Continued, compound first:

Row | SMILES | melting point
50 | CCCCN(CC)c1nc(C)nc2c1c(C)cn2-c1c(C)cc(CF)cc1C | 163 to 165 °C
51 | O=C1N(Cc2ccccn2)c2ccc3ncsc3c2C12COc1cc3c(cc12)OCCO3 (centres undefined) | 156 to 158 °C
52 | COc1ccc(C2CC(=O)N(C(=O)c3cncc(Br)c3)N2C)cc1OC1CCCC1 (centres undefined) | 139 to 141 °C
53 | C=CCON=C(CCC)C1=C(O)CC(c2cc(C)cs2)CC1=O (centres undefined) | 72 to 74 °C
54 | CSC(=S)NN=Cc1c[nH]c(C)n1 | 274 to 279 °C
55 | CCCCCCCCNC(=O)/C=C\SC(=O)c1ccc(F)cc1 | 87 to 91 °C
56 | CNc1nc(Cl)cc(NS(=O)(=O)c2ccc(F)cc2)n1 | 121 to 123 °C
57 | CC(CSC(C)C(=O)O)C(=O)O (centres undefined) | 78 to 80 °C
58 | O=C(NCC1CCOCC1)NC12CC3CC(CC(C3)C1)C2 | 196 to 198 °C
59 | N#Cc1cc(N)c(N)cc1C#N | 262 to 264 °C
60 | CC1CCC(C(C)C)C(OC2C=CC(=O)O2)C1 (centres undefined) | 70 to 71 °C
61 | C=CC(=O)NC(C(=O)OCC)C(=O)OCC | 105 to 106 °C
62 | Clc1ccc(C2=NOCCS2)s1 | 74 to 77 °C
63 | CCCOC(=O)Nc1cn2nc(OCc3cc(C)ccc3C)ccc2n1 | 196 to 197 °C
64 | O=C1Cc2c(cccc2OCC2CO2)N1 (centres undefined) | 164 to 166 °C
65 | c1ccc(CN2CC3OC(C4OCCO4)(C2)c2ccccc23)cc1 (centres undefined) | 78 to 79.5 °C
66 | CCOc1ccc(-c2nnc(C#N)o2)cc1 | 110 °C
67 | CCOc1cc2c(=O)cc(C(=O)O)n(CC)c2ccc1=O | 227 to 228 °C
68 | Cc1cc(-c2nnc3c4ccccc4c(OCc4cnn(C)c4)nn23)no1 | 212 to 213 °C
69 | COC(=O)/C=C(\Cl)c1ccc(Cl)cc1 | 40 °C
70 | CN(C)C=C1C(=O)N(c2ccccc2)C(=O)N1C | 131 to 133 °C
71 | CCCCn1c(C)cc(=O)n(C)c1=O | 181 to 182 °C
72 | CCOC(=O)c1cccc(NC(=O)NC2C(=O)N(CC34CC5CC(CC(C5)C3)C4)c3ccccc3N(c3ccccc3)C2=O)c1 (centres undefined) | 220 to 221 °C
73 | O=C(CCl)CCc1ccc(Cl)cc1 | 65 to 67 °C
74 | CCCC1=C(C(=O)OCC)C(c2cccc(C)c2Cl)c2c[nH]nc2N1 (centres undefined) | 198 to 200 °C

Row | SMILES | melting point
75 | O=Cc1c2n(c3ccc(Cl)cc13)CCC2 | 179 to 180 °C
76 | O=C(Nc1ccc2[nH]ncc2c1)O[C@@H](c1cccc(I)c1)[C@@H]1CCCCN1 | 126 °C
77 | N#CCCn1c(=N)sc2cc(OC(F)(F)F)ccc21 | 180 °C
78 | CCS(=O)(=O)Nc1ccc2[nH]cc(C3CCN(C)CC3)c2c1 | 176 to 178 °C
79 | CC1(C)OC(C=CC=Cc2ccc(Cl)cc2)=CC1=O | 95 to 96 °C
80 | O=S1CCN(c2ccc(-n3cc(CN=C=S)nn3)cc2F)CC1 | 182 to 184 °C
81 | CCn1c(=O)c(C)cc2cnc(S(C)=O)nc21 (centres undefined) | 148 to 150 °C
82 | CC(c1c[nH]cn1)c1cccc(C#N)c1O (centres undefined) | 172 °C
83 | COc1ccc(N2C(=O)O[C@H](COc3ccc(C#N)cc3)[C@@H]2C)cc1 | 127 to 128 °C
84 | CCCCCN(C[C@H]1CCC[C@H](CN(CCCCC)C(=O)Nc2ccc(N(C)C)cc2)C1)C(=O)Nc1ccc(N(C)C)cc1 (relative stereo) | 124 to 127 °C
85 | Nc1ccc(Cl)cc1-c1ncn[nH]1 | 170 to 175 °C
86 | CNC(=N[N+](=O)[O-])N(Cc1cnc(Cl)s1)C(=O)N(C)C | 140 °C
87 | COC1=NS(=O)(=O)N(Cc2ccccc2)C(=O)N1 | 141 to 144 °C
88 | O=C(O)CCP(=O)(O)c1ccccc1 | 158 to 161 °C
89 | O=C(NCCl)Oc1cccc(Cl)c1 | 90 °C
90 | CCc1cc2c(s1)-n1nnnc1CN=C2c1ccccc1Cl | 135 to 136 °C
91 | CC(C)C1=C(c2ccc(F)cc2)C(=O)C(C(C)C)=C(C(C)C)C1=O | 122 to 124 °C
92 | CC(C)C1(C)NC(c2nc3ccc(Cl)cc3cc2C(=O)O)=NC1=O (centres undefined) | 234 to 237 °C
93 | CCCCOC(=O)Nc1ccnc(-c2ccncc2)n1 | 180 to 182 °C
94 | COc1cc2c(N3CCc4ccc(Cl)cc43)ncnc2c(OC)c1OC | 139 to 143 °C
95 | CCCCCc1c(C=O)sc2cc(OC)ccc12 | 44 to 46 °C
96 | CC(C)(C1CCCCC1)C(NC(=O)c1ccc(Cl)cc1)Nc1c(Nc2cccnc2)c(=O)c1=O (centres undefined) | 275 to 276 °C
97 | Cn1cc(C2=C(c3ccsc3)C(=O)NC2=O)c2ccccc21 | 211 to 212 °C
98 | O=C1C=CC(O)(c2cc3ccccc3o2)C=C1 | 106 to 108 °C
99 | Cc1c(C)c2c(c(C)c1O)CCC(C)(O)O2 (centres undefined) | 105 to 107 °C
